Measured values as given in US20220167853A1, “Method for plaque detection” (Koite Health Oy, priority 2019, published 2022).
Entries after “also recorded” stand apart in the source; their conditions may differ.

How the values were obtained:
[1] = tested on: Streptococcus mutans biofilm; assay: Streptococcus mutans monospecies biofilm model, PDT with indocyanine green, viability by serial dilution CFU; type: cell-based, Streptococcus mutans (ATCC 25175); conditions: 250 μg/ml ICG with 810 nm light
Protocol: Two separate monospecies biofilm model experiments were performed to study the effect of reoccurring photodynamic therapy on biofilm formation. The Streptococcus mutans biofilm experiments were divided in different classes based on biofilm age and the therapy given.
The one-time PDT treatment was performed for 1 day, 2 days and 4 days old biofilms. […] The viability of the bacteria was assessed by serial dilution CFU method which was performed after the last photodynamic therapy treatment.
Streptococcus mutans (ATCC 25175) bacteria was grown over 18 h in growth chamber (36° C., 5% CO2) in BHI-broth (Bio-Rad 3564014). The resulting bacteria suspension was diluted with 0.9% NaCl suspension to optical density of 0.46.
Biofilm was grown on bottom of well plate by adding 100 ul diluted Streptococcus mutans suspension in each well with 100 μl of BHI-broth growth medium. The bacteria plate was incubated in growth chamber (36 Celsius, 5% CO2) and BHI-broth medium changed daily.
Before the light exposure, the growth medium was replaced with indocyanine green suspension which was let to incubate in dark in room temperature for 10 minutes. […] The treatment time was calculated from desired light amount and known intensity.
The light exposure was performed by placing the well plate under known LED light source. The given light intensity was analyzed with Thorlabs PM100D and S121C sensor head. […]

[2] = tested on: monospecies biofilm of Streptococcus sobrinus; conditions: monospecies biofilm vs planktonic form; cited from earlier work
[3] = tested on: Streptococcus mutans biofilm; assay: Potentiation of chlorhexidine with dual wavelength PDT; type: cell-based; conditions: versus reference and treatment with only one wavelength; FIG. 3
Description: Treatment can be combined with use of antibiotics and disinfectants for synergist antipathogen effect. For example, the use phototherapy with chlorhexidine to target biofilms is new to oral disinfection. The results of dual wavelength photodynamic therapy with chlorhexidine against Streptococcus mutans biofilm shown in appendix III are completely new. […] The effectivity is based on photon and anionic photosensitizer ability to penetrate deeper into biofilm and provide efficient bacteria killing inside the biofilm as well as on the surface. The chlorhexidine effect is mostly present only on the surface of the biofilm. High energy photons reduce the biofilm EPS matrix formation that further increases the chlorhexidine effectivity in subsequent treatments. In a second series of tests, potentiation of chlorhexidine with dual wavelength PDT was evaluated.

Molecule | effect of PDT treatment on biofilm (CFU) ([1]; single wavelength, 4 days old biofilm treated every day) | effect of PDT treatment on biofilm (CFU) ([1]; treatment given once to 1, 2 and 4 days old biofilms) | greater concentration needed to kill biofilm than planktonic counterpart [2] [time] | antimicrobial effect of chlorhexidine combined with multi (dual) wavelength PDT [3]
CC1(C)C(/C=C/C=C/C=C/C=C2\N(CCCCS(=O)(=O)O)c3ccc4ccccc4c3C2(C)C)=[N+](CCCCS(=O)(=O)[O-])c2ccc3ccccc3c21 [ICG, Indocyanine Green] | poor treatment effect | strong effect |  | 
[H]/N=C(\N/C(=N/[H])NCCCCCCNC(=N)NC(=N)Nc1ccc(Cl)cc1)Nc1ccc(Cl)cc1 [chlorhexidine] |  |  | 100 | increased substantially; also recorded: much stronger effect
amine fluoride |  |  | 100 | 
